Source: patent US9926297B2, “Bicyclic AZA compounds as muscarinic M1 receptor and/or M4 receptor agonists” (Heptares Therapeutics Limited, priority 2014, dated 2018)

Assays:
[1] = biological target: T1, human muscarinic M2 receptor (Homo sapiens, UniProt P08172); test: Alphascreen Surefire phospho-ERK1/2 functional assay, M2; conditions: for Emax: CHO, read-out: % Emax cf. ACh, M2, CHO cells stably expressing human M2, relative to ACh
T1 sequence (P08172 1-466): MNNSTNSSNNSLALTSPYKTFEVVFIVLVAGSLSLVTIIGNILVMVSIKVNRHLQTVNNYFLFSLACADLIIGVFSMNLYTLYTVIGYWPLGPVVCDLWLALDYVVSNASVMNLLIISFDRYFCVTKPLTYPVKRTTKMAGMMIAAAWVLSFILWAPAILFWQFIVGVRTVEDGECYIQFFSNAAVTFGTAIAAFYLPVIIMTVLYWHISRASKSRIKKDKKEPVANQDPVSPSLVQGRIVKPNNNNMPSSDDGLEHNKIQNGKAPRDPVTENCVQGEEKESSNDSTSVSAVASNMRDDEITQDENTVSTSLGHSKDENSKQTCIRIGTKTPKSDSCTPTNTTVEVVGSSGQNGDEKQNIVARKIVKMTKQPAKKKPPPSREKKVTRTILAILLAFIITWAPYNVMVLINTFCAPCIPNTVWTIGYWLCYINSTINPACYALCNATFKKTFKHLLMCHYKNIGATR

[2] = biological target: T2, human muscarinic M4 receptor (Homo sapiens, UniProt P08173); test: Alphascreen Surefire phospho-ERK1/2 functional assay, M4; type: cell-based; conditions: for EC50: CHO cells stably expressing human M4, phospho-ERK1/2, * = variable results, read-out: pEC50 M4 (converted); for Emax: CHO, read-out: % Emax cf. ACh, M4, CHO cells stably expressing human M4, relative to ACh
T2 construct: expressed in transfected cells
T2 sequence (P08173 1-479): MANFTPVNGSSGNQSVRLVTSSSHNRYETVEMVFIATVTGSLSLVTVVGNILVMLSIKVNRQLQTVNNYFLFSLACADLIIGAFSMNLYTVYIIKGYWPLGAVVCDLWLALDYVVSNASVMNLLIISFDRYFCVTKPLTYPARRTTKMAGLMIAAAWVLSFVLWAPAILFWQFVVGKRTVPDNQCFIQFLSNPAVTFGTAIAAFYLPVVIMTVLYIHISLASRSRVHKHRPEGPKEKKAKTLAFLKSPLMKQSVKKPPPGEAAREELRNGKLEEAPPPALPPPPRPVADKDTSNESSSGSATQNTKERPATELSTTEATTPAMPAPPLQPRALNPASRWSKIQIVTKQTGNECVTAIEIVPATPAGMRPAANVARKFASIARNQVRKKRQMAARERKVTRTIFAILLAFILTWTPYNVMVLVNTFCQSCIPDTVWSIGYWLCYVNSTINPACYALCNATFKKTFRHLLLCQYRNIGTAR

[3] = biological target: human muscarinic M3 receptor (Homo sapiens, UniProt P20309); test: Alphascreen Surefire phospho-ERK1/2 functional assay, M3; conditions: for Emax: CHO, read-out: % Emax cf. ACh, M3, CHO cells stably expressing human M3, relative to ACh; for EC50: pEC50 M3, CHO cells stably expressing human M3, phospho-ERK1/2, * = variable results
[4] = biological target: T3, human muscarinic M1 receptor (Homo sapiens, UniProt P11229); test: Alphascreen Surefire phospho-ERK1/2 functional assay, M1; type: cell-based; conditions: for EC50: CHO cells stably expressing human M1, phospho-ERK1/2, * = variable results, read-out: pEC50 M1 (converted); for Emax: CHO, read-out: % Emax cf. ACh, M1, CHO cells stably expressing human M1, relative to ACh
T3 sequence (P11229 1-460): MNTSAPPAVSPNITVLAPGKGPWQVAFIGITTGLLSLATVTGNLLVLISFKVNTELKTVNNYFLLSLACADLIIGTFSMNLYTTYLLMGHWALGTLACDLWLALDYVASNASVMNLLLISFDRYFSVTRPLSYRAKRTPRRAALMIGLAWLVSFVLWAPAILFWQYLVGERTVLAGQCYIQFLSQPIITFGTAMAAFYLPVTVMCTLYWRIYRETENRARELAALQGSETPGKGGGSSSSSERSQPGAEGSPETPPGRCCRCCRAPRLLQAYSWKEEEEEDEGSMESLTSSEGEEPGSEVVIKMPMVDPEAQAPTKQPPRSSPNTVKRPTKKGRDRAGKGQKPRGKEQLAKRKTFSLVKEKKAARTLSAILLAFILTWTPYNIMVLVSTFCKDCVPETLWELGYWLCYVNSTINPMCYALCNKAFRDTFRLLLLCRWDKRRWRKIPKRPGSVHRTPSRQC

Sequence of human muscarinic M3 receptor (P20309 whole entry): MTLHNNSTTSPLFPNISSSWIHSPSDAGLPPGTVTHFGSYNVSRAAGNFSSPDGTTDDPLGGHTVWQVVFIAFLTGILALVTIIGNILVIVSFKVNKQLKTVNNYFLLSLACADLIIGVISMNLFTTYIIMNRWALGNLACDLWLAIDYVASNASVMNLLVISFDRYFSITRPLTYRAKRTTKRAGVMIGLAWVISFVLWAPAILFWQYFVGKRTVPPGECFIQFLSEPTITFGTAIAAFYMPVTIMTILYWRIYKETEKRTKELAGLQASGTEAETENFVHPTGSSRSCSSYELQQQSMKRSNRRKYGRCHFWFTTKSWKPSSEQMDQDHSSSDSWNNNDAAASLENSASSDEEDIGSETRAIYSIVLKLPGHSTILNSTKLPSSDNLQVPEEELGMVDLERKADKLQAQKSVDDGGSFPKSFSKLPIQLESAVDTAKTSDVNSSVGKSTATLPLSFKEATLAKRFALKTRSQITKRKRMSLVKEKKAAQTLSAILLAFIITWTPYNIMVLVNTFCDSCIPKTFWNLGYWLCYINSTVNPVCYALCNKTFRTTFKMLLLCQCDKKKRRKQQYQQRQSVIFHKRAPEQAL

| SMILES | EC50 [1] [nM] | Emax [1] [%] | EC50 [2] [nM] | Emax [2] [%] | Emax [3] [%] | EC50 [3] [nM] | EC50 [4] [nM] | Emax [4] [%] |
| --- | --- | --- | --- | --- | --- | --- | --- | --- |
| CCOC(=O)N1CCC2(CC(N3CCC(c4ncc[nH]4)CC3)C2)C1 (single isomer, unassigned) [1-1 Isomer 2, ethyl 2-[4-(1H-imidazol-2-yl)piperidin-1-yl]-6-azaspiro[3.4]octane-6-carboxylate] | > 20000 | 20 | 7.94 | 112 | 26 | > 20000 | 63.1 | 121 |
| CCOC(=O)N1CCC2(CC(N3CCC(c4nc(Cl)c[nH]4)CC3)C2)C1 (single isomer, unassigned) [1-2 Isomer 2, ethyl 2-[4-(4-chloro-1H-imidazol-2-yl)piperidin-1-yl]-6-azaspiro[3.4]octane-6-carboxylate] | > 20000 | 6 | 25.1 | 100 | 4 | > 20000 | 251 | 93 |
| CCOC(=O)N1CCC2(CC(N3CCC(c4nc(Cl)c(Cl)[nH]4)CC3)C2)C1 (single isomer, unassigned) [1-5 Isomer 2, ethyl 2-[4-(4,5-dichloro-1H-imidazol-2-yl)piperidin-1-yl]-6-azaspiro[3.4]octane-6-carboxylate] | > 20000 | 19 | 20 | 81 | 2 | > 20000 | 126 | 94 |
| CCOC(=O)N1CCC2(CC(N3CCC(c4nc(C(F)(F)F)cn4C)CC3)C2)C1 (single isomer, unassigned) [1-15 Isomer 2, ethyl 2-{4-[1-methyl-4-(trifluoromethyl)-1H-imidazol-2-yl]piperidin-1-yl}-6-azaspiro[3.4]octane-6-carboxylate] | > 20000 | 4 |  |  | 6 | > 20000 | 100 | 70 |
| COC(=O)N1CCC2(CC(N3CCC(c4nc(Cl)c(Cl)n4C)CC3)C2)C1 (single isomer, unassigned) [1-16 Isomer 2, methyl 2-[4-(4,5-dichloro-1-methyl-1H-imidazol-2-yl)piperidin-1-yl]-6-azaspiro[3.4]octane-6-carboxylate] | 7940 | 34 | 158 | 82 | 1 | > 20000 | 1580 | 80 |
| CCOC(=O)N1CCC2(CC(N3CCC(c4nc(Cl)c(Cl)n4C)CC3)C2)C1 (single isomer, unassigned) [1-17 Isomer 2, ethyl 2-[4-(4,5-dichloro-1-methyl-1H-imidazol-2-yl)piperidin-1-yl]-6-azaspiro[3.4]octane-6-carboxylate] | > 20000 | 14 | 63.1 | 90 | 0 | > 20000 | 631 | 53 |
| CCOC(=O)N1CCC2(CC(N3CCC(c4ccn[nH]4)CC3)C2)C1 (single isomer, unassigned) [1-18 Isomer 2, ethyl 2-[4-(1H-pyrazol-5-yl)piperidin-1-yl]-6-azaspiro[3.4]octane-6-carboxylate] | > 20000 | 3 | 50.1 | 89 | 56 | > 20000 | 126 | 65 |
| CCOC(=O)N1CCC2(CC(N3CCC(c4ncco4)CC3)C2)C1 (single isomer, unassigned) [1-23 Isomer 2, ethyl 2-[4-(1,3-oxazol-2-yl)piperidin-1-yl]-6-azaspiro[3.4]octane-6-carboxylate] | > 20000 | 7 | 31.6 | 105 | 9 | > 20000 | 398 | 55 |
| COC(=O)N1CCC2(CC(N3CCC(c4nccs4)CC3)C2)C1 (single isomer, unassigned) [1-24 Isomer 2, methyl 2-[4-(1,3-thiazol-2-yl)piperidin-1-yl]-6-azaspiro[3.4]octane-6-carboxylate] | 6310 | 32 | 25.1 | 78 | 0 | > 20000 | 251 | 102 |

Continued, values first:

| EC50 [1] [nM] | Emax [1] [%] | EC50 [2] [nM] | Emax [2] [%] | Emax [3] [%] | EC50 [3] [nM] | EC50 [4] [nM] | Emax [4] [%] | SMILES |
| --- | --- | --- | --- | --- | --- | --- | --- | --- |
| > 20000 | 57 | 63.1 | 71 | 38 | 63.1 | 1260 | 128 | COC(=O)N1CCC2(CC(N3CCC(c4nccn4C)CC3)C2)C1 (single isomer, unassigned) [1-6 Isomer 2, methyl 2-[4-(1-methyl-1H-imidazol-2-yl)piperidin-1-yl]-6-azaspiro[3.4]octane-6-carboxylate] |
| > 20000 | 15 | 25.1 | 97 | 22 | > 20000 | 158 | 97 | CCOC(=O)N1CCC2(CC(N3CCC(c4nccn4C)CC3)C2)C1 (single isomer, unassigned) [1-7 Isomer 2, ethyl 2-[4-(1-methyl-1H-imidazol-2-yl)piperidin-1-yl]-6-azaspiro[3.4]octane-6-carboxylate] |
| > 20000 | 34 | 15.8 | 98 | 0 | > 20000 | 316 | 76 | CCOC(=O)N1CCC2(CC(N3CCC(c4nccn4C(=O)OCC)CC3)C2)C1 (single isomer, unassigned) [1-8 Isomer 2, ethyl 2-{4-[1-(ethoxycarbonyl)-1H-imidazol-2-yl]piperidin-1-yl}-6-azaspiro[3.4]octane-6-carboxylate] |
| > 20000 | 11 | 126 | 128 | 15 | > 20000 | 1000 | 85 | CCOC(=O)N1CCC2(CC(N3CCC(c4nc(C)cn4C)CC3)C2)C1 (single isomer, unassigned) [1-12 Isomer 2, ethyl 2-[4-(1,4-dimethyl-1H-imidazol-2-yl)piperidin-1-yl]-6-azaspiro[3.4]octane-6-carboxylate] |
| > 20000 | 27 | 50.1 | 99 | 5 | > 20000 | 631 | 66 | CCOC(=O)N1CCC2(CC(N3CCC(c4ncc(Cl)n4C)CC3)C2)C1 (single isomer, unassigned) [1-14 Isomer 2, ethyl 2-[4-(5-chloro-1-methyl-1H-imidazol-2-yl)piperidin-1-yl]-6-azaspiro[3.4]octane-6-carboxylate] |
| > 20000 |  | 39.8 |  |  | > 20000 | > 20000 | 11 | CCOC(=O)N1CCC2(CC(N3CCC(c4ccnn4C)CC3)C2)C1 (single isomer, unassigned) [1-21 Isomer 2, ethyl 2-[4-(1-methyl-1H-pyrazol-5-yl)piperidin-1-yl]-6-azaspiro[3.4]octane-6-carboxylate] |
